Test results taken from publication PMC3125149, “SCYX-7158, an Orally-Active Benzoxaborole for the Treatment of Stage 2 Human African Trypanosomiasis” (PLoS Neglected Tropical Diseases, 2011).

What was measured:
[1] = target: T1, hERG channel expressed in HEK-293 cells (Homo sapiens, UniProt Q12809); assay: hERG whole-cell patch clamp; assay type: cell-based
T1 construct: expressed in transfected cells; host or cells: HEK-293

[2] = Brain tissue binding by rapid equilibrium dialysis; assay type: in vitro ADME; details: mouse brain tissue; independent of concentration
Protocol: (§1) Binding to human or mouse plasma proteins or mouse brain homogenate was determined by rapid equilibrium dialysis (RED) (Pierce, Rockford, IL) using a 48-well plate-based format according to the manufacturer's instructions. Briefly, test compound at the required concentrations was added to fresh human or mouse plasma (Bioreclamation, Liverpool, NY) or freshly prepared mouse brain homogenate. Duplicate aliquots of each sample were transferred into the sample chambers of the RED devices, and dialysis buffer (BupH PBS) was added to the buffer chambers. The plates were sealed and incubated at 37°C for 4 h. After dialysis, samples collected from the buffer and tissue chambers were treated with ice-cold methanol (3 volumes for plasma, 4 volumes for brain) to precipitate proteins. The treated samples were centrifuged for 10 min at 3×10^3 g at 15°C. The supernatants were assayed for test compound by LC-MS/MS. Calibration standards and quality control samples were prepared in matched matrix and assayed with samples. Values for unbound and bound fractions and mass balance were calculated. Concordance of binding for each batch of plasma was confirmed by assay of warfarin, imipramine and carbamezapine. Acceptance criterion for mass balance was 70–120%.

[3] = Stability in plasma or brain homogenate; assay type: in vitro ADME; details: incubated with plasma or brain homogenate for 4 h at 37°C
Protocol: as §1, with “[…] The stability of each oxaborole in the CNS tissue was evaluated by incubation in fresh rodent brain homogenate. […] Supernatants from the incubation mixtures were analyzed” for “Acceptance criterion”, “parent compound by LC-MS/MS.” for “mass balance was 70–120%.”

[4] = Pharmacokinetics in uninfected mice; assay type: in vivo, mouse; details: for Kp: read-out: brain to plasma ratio based on AUC0–24 h; for AUC(0-t): read-out: AUC0–24 h
Protocol: (§2) The blood distribution, CNS disposition and pharmacokinetics of SCYX-7158 were evaluated in infected or non-infected rodents following intravenous or oral administration of compounds. Pharmacokinetics and bioavailability of SCYX-7158 were also evaluated in non-infected beagle dogs and cynomolgus monkeys. In-life phases of non-infected rodent studies were performed at Vivisource (Waltham, MA); studies in non-naïve cynomolgus monkeys were performed by SNBL USA (Everett, WA). Male CD-1 mice (∼25 g), male Sprague-Dawley rats (∼225 g), or male cynomolgus monkeys (∼3–5 kg) were administered test article by either bolus intravenous injection (IV) or oral gavage. Animals in the IV groups received a single 2 mg/kg IV dose. Animals received oral doses of test articles as either single or twice daily doses ranging from 8 mg/kg to 50 mg/kg. All doses were administered as clear colorless solutions in either 50% (v/v) PEG 400: 20% (v/v) ethanol: 30% (v/v) carboxymethylcellulose (0.5% w/v in sterile water for injection) or 2% (v/v) ethanol: 5% (w/v) dextrose in sterile water for injection. […] For pharmacokinetic analysis, blood samples were collected from mice via cardiac puncture under terminal anaesthesia. Serial blood samples were collected from rats via a vascular access port located in the lateral saphenous vein. Mice and rats were euthanized in a CO2 chamber before collection of terminal blood samples or brain tissue. Blood samples were collected into polypropylene tubes containing K2EDTA anticoagulant and stored on ice until centrifuged for the preparation of plasma. Plasma was stored at −70°C. Whole brains were collected following decapitation, blotted dry, placed into polypropylene containers and then immediately frozen at approximately −70°C. CSF was collected from rats via cisterna magna puncture, placed in sterile polypropylene tubes, and stored at approximately −70°C. […] Treated samples were gently mixed at room temperature for 10 min, and then centrifuged at approximately 3000×g for 15 min at 15°C. The supernatants were transferred to 96-well plates or HPLC vials for analysis by LC-MS/MS. Pharmacokinetic parameters were calculated from composite mean plasma or tissue data using non-compartmental (oral and intravenous routes) and bi-exponential (intravenous route) analyses in Microsoft Excel.

[5] = Pharmacokinetics in cynomolgus monkeys; assay type: in vivo, cynomolgus monkey
Protocol: as §2

T1 sequence (Q12809 whole entry): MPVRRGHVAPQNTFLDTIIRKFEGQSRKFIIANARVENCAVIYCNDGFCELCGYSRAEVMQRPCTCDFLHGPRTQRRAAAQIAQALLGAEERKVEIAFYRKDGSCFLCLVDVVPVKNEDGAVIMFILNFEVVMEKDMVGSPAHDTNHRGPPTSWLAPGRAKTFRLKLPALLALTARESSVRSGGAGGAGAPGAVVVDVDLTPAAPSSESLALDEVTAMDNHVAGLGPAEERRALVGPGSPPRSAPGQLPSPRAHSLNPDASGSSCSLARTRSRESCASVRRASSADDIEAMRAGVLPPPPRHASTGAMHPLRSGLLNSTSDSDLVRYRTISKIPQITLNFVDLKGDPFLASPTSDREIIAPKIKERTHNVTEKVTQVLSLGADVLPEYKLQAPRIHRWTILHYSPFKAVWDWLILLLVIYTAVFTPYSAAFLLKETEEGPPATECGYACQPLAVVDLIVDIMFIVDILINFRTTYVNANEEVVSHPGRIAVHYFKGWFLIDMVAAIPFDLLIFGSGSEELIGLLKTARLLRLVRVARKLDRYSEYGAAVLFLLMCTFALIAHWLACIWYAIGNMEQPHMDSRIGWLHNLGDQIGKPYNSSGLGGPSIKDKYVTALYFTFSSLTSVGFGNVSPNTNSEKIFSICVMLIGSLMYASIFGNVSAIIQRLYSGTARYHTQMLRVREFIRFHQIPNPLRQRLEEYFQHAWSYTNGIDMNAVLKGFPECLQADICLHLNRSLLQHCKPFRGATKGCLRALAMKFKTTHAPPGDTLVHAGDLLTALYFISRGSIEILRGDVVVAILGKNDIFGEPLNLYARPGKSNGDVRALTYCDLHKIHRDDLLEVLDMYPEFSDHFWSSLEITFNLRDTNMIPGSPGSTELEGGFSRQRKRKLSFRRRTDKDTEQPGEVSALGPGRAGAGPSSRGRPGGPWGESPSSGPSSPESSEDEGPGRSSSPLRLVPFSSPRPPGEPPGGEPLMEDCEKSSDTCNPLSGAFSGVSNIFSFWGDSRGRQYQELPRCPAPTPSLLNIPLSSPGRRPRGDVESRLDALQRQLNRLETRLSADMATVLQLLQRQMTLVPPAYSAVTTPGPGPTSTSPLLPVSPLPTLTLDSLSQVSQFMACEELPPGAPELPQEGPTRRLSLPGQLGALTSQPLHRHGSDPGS

Molecule `CC1(C)OB(O)c2cc(NC(=O)c3ccc(F)cc3C(F)(F)F)ccc21` [SCYX-7158] has a mean fractional block ([1]; 30 µM) of 0.108±0.037, a mean fractional block ([1]; 100 µM) of 0.198±0.018 and an IC50 ([1]; indicated by patch clamp fractional block) of over 100 µM. For the same molecule, the fubrain [2] was about 5%, the stability [3] was “stable” and the “brain AUC0–24 h” value ([4]; 13.4 mg/kg oral, brain) was 31400 ng·h/mL. For the same molecule, the “time of Cmax” value ([4]; 13.4 mg/kg oral, plasma) was 6 h, the “brain AUC0–24 h” value ([4]; 26 mg/kg oral, brain) was 68000 ng·h/mL and the Kp ([4]; male, CD-1, mouse, brain and plasma, 13.4 mg/kg oral) was 0.38. For the same molecule, the Kp ([4]; male, CD-1, mouse, brain/plasma, 26 mg/kg oral) was 0.6, the bioavailability ([4]; male, CD-1, mouse, plasma, 13.4 mg/kg oral, read-out: absolute oral bioavailability) was 55% and the CL/F ([4]; male, CD-1, mouse, plasma, 13.4 mg/kg oral, read-out: oral clearance (Cl/F) (converted)) was 2.72 mL/min/kg. The AUC(0-t) ([4]; male, CD-1, mouse, 4.3 mg/kg intravenous, plasma) was 48000 ng·h/mL, the half-life ([4]; male, CD-1, mouse, 4.3 mg/kg intravenous, plasma, read-out: apparent elimination half-life (t1/2) (converted)) was 26.6 h and the Cmax ([4]; male, CD-1, mouse, 13.4 mg/kg oral, brain, read-out: Cmax in brain tissue) was 4620 ng/mL. It also gave an AUC(0-t) ([4]; male, CD-1, mouse, 13.4 mg/kg oral, plasma) of 82000 ng·h/mL, a Cmax ([4]; male, CD-1, mouse, 13.4 mg/kg oral, plasma, read-out: Cmax) of 6960 ng/mL and a Cmax ([4]; male, CD-1, mouse, 26 mg/kg oral, brain, read-out: Cmax in brain tissue) of 8100 ng/mL. The AUC(0-t) ([4]; male, CD-1, mouse, 26 mg/kg oral, plasma) was 113000 ng·h/mL, the Cmax ([4]; male, CD-1, mouse, 26 mg/kg oral, plasma, read-out: Cmax) was 9800 ng/mL and the “time of Cmax” value ([5]; 10 mg/kg NG, plasma) was 9.5 h. For the same molecule, the Kp ([5]; male, cynomolgus monkey, CSF/plasma, at each time point, read-out: CSF concentration as % of the plasma concentration) was about 0.05, the AUC(0-inf) ([5]; male, cynomolgus monkey, oral, 10 mg/kg SCYX-7158 NG, plasma) was 460000 ng·h/mL and the Cmax ([5]; male, cynomolgus monkey, oral, 10 mg/kg SCYX-7158 nasogastric (NG), plasma) was 11000 ng/mL. The bioavailability ([5]; male, cynomolgus monkey, plasma, po, 10 mg/kg NG, read-out: absolute oral bioavailability) was 89%, the CL/F ([5]; male, cynomolgus monkey, plasma, po, 10 mg/kg NG, read-out: oral clearance (Cl/F) (converted)) was 0.417 mL/min/kg and the clearance ([5]; male, cynomolgus monkey, plasma, 2 mg/kg IV) was 0.367 mL/min/kg. For the same molecule, the Vd ([5]; male, cynomolgus monkey, plasma, 2 mg/kg IV, read-out: Vdss) was 0.656 L/kg, the AUC(0-inf) ([5]; male, cynomolgus monkey, 2 mg/kg IV, plasma) was 94400 ng·h/mL and the AUC(0-t) ([5]; male, cynomolgus monkey, 2 mg/kg IV, plasma, read-out: AUC0–24 h) was 78800 ng·h/mL.
